According to ChEMBL document CHEMBL1123916, “Facile synthesis of 2-[(3-aminopropyl)thio]adenosine 5'-diphosphate: a key intermediate for the synthesis of molecular probes of adenosine 5'-diphosphate function” (J Med Chem, 1987):
Activity calls are given as the source filed them.

Legend:
Type in all cases: functional, organism-based
[1] = species: Homo sapiens; experiment: Agonistic activity against platelet aggregation; Effective agonist; conditions: filed as agonist
[2] = species: Homo sapiens; experiment: Biphasic response at low concentration; Active
[3] = species: Homo sapiens; experiment: Reversible aggregation effect at low concentration; Active

Measured: Activity

Nc1ncnc2c1ncn2[C@@H]1O[C@H](COP(=O)(O)OP(=O)(O)O)[C@@H](O)[C@H]1O
active: [1] Agonist | [2] | [3]
